Data: patent publication US20230374038A1, “MODULATORS OF CYSTIC FIBROSIS TRANSMEMBRANE CONDUCTANCE REGULATOR” (VERTEX PHARMACEUTICALS INCORPORATED, priority 2020, published 2023)

Molecular target: CFTR (Homo sapiens, UniProt P13569)
Assay: Membrane Potential Dye, Enteroid Assay B
Format: cell-based
Conditions: for EC50: read-out: Ent. B EC50
Experimental: Base medium (ADF+++) consisted of Advanced DMEM/Ham's F12, 2 mM Glutamax, 10 mM HEPES, 1 µg/mL penicillin/streptomycin.
Intestinal enteroid maintenance medium (IEMM) consisted of ADF+++, 1× B27 supplement, 1× N2 supplement, 1.25 mM N-acetyl cysteine, 10 mM Nicotinamide, 50 ng/mL hEGF, 10 nM Gastrin, 1 pg/mL hR-spondin-1, 100 ng/mL hNoggin, TGF-b type 1 inhibitor A-83-01, 100 μg/mL Primocin, […] P38 MAPK inhibitor SB202190.
Bath 1 Buffer consisted of 1 mM MgCl2, 160 mM NaCl, 4.5 mM KCl, 10 mM HEPES, 10 mM Glucose, 2 mM CaCl2).
Chloride Free Buffer consisted of 1 mM Magnesium Gluconate, 2 mM Calcium Gluconate, 4.5 mM Potassium Gluconate, 160 mM Sodium Gluconate, 10 mM HEPES, 10 mM Glucose.
Bath1 Dye Solution consisted of Bath 1 Buffer, 0.04% Pluronic F127, […] Methyl Oxonol, 30 μM CaCCinh-A01, 30 μM Chicago Sky Blue.
Chloride Free Dye Solution consisted of Chloride Free Buffer, 0.04% Pluronic F127, 20 μM Methyl Oxonol, 30 μM CaCCinh-A01, 30 μM Chicago Sky Blue.
Chloride Free Dye Stimulation Solution consisted of Chloride Free Dye Solution, 10 μM forskolin, 100 μM IBMX, and 300 nM Compound III.
Human intestinal epithelial enteroid cells were obtained from the Hubrecht Institute for Developmental Biology and Stem Cell Research, Utrecht, The Netherlands and expanded in T-Flasks as previously described (Dekkers J F, Wiegerinck C L, de Jonge H R, Bronsveld I, Janssens H M, de Winter-de Groot K M, Brandsma A M, de Jong N W M, Bijvelds M J C, Scholte B J, Nieuwenhuis E E S, van den Brink S, Clevers H, van der Ent C K, Middendorp S and M Beekman J M. A functional CFTR assay using primary cystic fibrosis intestinal organoids. Nat Med. 2013 July; 19(7):939-45.).
Cells were recovered in cell recovery solution, collected by centrifugation at 650 rpm for 5 min at 4° C., resuspended in TryPLE and incubated for 5 min at 37° C. Cells were then collected by centrifugation at 650 rpm for 5 min at 4° C. and resuspended in IEMM containing 10 μM ROCK inhibitor (RI). The cell suspension was passed through a 40 μm cell strainer and resuspended at 1×10^6 cells/mL in IEMM containing 10 μM RI. Cells were seeded at 5000 cells/well into multi-well plates and incubated for overnight at 37° C., 95% humidity and 5% CO2 prior to assay.
Enteroid cells were incubated with test compound in IEMM for 18-24 hours at 37° C., 95% humidity and 5% CO2. […] Briefly, cells were washed 5 times in Bath 1 Buffer. Bath 1 Dye Solution was added and the cells were incubated for 25 min at room temperature. Following dye incubation, cells were washed 3 times in Chloride Free Dye Solution. Chloride transport was initiated by addition of Chloride Free Dye Stimulation Solution and the fluorescence signal was read for 15 min. […] Chloride transport was then expressed as a percentage of the chloride transport following treatment with 1 μM (14S)-8-[3-(2-{Dispiro[2.0.2.1]heptan-7-yl}ethoxy)-1H-pyrazol-1-yl]-12,12-dimethyl-2λ^6-thia-3,9,11,18,23-pentaazatetracyclo[17.3.1.111,14.05,10]tetracosa-1(22),5,7,9,19(23),20-hexaene-2,2,4-trione, 3 μM (R)-1-(2,2-difluorobenzo[d][1,3]dioxol-5-yl)-N-(1-(2,3-dihydroxypropyl)-6-fluoro-2-(1-hydroxy-2-methylpropan-2-yl)-1H-indol-5-yl)cyclopropanecarboxamide and 300 nM acute N-[2,4-bis(1,1-dimethylethyl)-5-hydroxyphenyl]-1,4-dihydro-4-oxoquinoline-3-carboxamide triple combination control (% Activity).

Sequence of CFTR (P13569 with tags, fused parts or gaps DEL508-508): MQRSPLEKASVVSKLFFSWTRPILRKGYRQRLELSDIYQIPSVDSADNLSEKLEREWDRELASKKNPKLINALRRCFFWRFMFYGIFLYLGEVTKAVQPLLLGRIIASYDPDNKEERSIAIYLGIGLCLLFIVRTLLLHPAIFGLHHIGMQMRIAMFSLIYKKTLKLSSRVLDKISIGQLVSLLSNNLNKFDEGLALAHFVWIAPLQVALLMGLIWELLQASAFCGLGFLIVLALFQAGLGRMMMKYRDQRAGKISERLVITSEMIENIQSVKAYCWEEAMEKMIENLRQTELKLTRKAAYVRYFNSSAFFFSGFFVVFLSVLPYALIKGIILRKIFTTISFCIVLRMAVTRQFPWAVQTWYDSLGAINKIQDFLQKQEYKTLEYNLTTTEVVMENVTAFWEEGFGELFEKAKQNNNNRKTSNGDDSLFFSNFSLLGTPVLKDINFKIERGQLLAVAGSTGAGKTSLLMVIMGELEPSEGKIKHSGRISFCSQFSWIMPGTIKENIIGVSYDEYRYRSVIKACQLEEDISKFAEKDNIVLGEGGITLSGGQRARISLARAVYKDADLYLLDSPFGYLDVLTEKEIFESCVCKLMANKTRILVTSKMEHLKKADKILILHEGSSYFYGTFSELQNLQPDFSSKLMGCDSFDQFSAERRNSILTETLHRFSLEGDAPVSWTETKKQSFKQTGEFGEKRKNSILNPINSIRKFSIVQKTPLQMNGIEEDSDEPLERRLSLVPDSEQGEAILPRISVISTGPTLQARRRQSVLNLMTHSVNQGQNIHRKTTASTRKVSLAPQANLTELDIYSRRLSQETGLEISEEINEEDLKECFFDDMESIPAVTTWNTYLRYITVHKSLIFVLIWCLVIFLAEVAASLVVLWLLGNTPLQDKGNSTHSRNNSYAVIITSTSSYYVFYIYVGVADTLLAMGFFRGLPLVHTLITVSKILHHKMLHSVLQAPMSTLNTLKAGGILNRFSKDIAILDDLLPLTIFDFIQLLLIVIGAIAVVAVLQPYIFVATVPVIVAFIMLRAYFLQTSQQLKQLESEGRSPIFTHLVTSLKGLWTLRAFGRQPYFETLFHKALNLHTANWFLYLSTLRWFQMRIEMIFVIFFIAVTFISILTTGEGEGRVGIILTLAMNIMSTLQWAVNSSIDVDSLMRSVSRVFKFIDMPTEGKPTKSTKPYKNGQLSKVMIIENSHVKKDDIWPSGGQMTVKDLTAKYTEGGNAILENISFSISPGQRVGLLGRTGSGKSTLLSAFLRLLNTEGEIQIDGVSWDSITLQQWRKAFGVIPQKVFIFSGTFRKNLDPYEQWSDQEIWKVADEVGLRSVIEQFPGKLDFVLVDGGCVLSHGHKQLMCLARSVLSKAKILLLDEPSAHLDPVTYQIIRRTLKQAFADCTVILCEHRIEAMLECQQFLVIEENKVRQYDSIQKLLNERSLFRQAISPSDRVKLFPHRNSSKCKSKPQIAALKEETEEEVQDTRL

Structure (SMILES)	Ent. B Max Activity	EC50
Cc1cccc(C)c1-c1nc2nc(c1-c1ccn(C)n1)O[C@H](C)CNC(=O)c1cccc(c1)S(=O)(=O)N2 [Compound 129]	+ (+ is <30%)	
Cc1cccc(C)c1-c1nc2nc(c1C)OC[C@@H](CC(C)C)N([C@H]1C[C@@]3(C[C@H](NC(=O)OC(C)C)C3)C1)C(=O)c1cccc(c1)S(=O)(=O)N2 (single isomer, unassigned) [Compound 52]	+++ (+++ is >60%)	< 1000 nM
Cc1cccc(C)c1-c1nc2nc(c1C1=CCN(C(=O)OC(C)(C)C)CC1)OC[C@@H](C)NC(=O)c1cccc(c1)S(=O)(=O)N2 [Compound 136]	++ (++ is 30-60%)	1000 to 3000 nM
Cc1cccc(C)c1-c1nc2nc(c1C)OC[C@@H](CCC(C)(C)O)N(Cc1ccc(C(C)(C)O)cc1)C(=O)c1cccc(c1)S(=O)(=O)N2 [Compound 112]	++ (++ is 30-60%)	1000 to 3000 nM
Cc1cccc(C)c1-c1nc2nc(c1-c1cnn(CC(C)C)c1)OC[C@@H](C)NC(=O)c1cccc(c1)S(=O)(=O)N2 [Compound 124, (11R)-6-(2,6-Dimethylphenyl)-7-(1-isobutylpyrazol-4-yl)-11-methyl-2,2-dioxo-9-oxa-2λ^6-thia-3,5,12,19-tetrazatricyclo[12.3.1.14,8]nonadeca-1(18),4(19),5,7,14,16-hexaen-13-one]	++ (++ is 30-60%)	3000 to 30000 nM
Cc1ccc(C(F)(F)F)c(C)c1-c1nc2nc(c1C(F)(F)F)OC[C@@H](CC(C)C)NC(=O)c1cccc(c1)S(=O)(=O)N2 [Compound 163, (11R)-6-[2,6-Dimethyl-3-(trifluoromethyl)phenyl]-11-isobutyl-2,2-dioxo-7-(trifluoromethyl)-9-oxa-2λ^6-thia-3,5,12,19-tetrazatricyclo[12.3.1.14,8]nonadeca-1(18),4(19),5,7,14,16-hexaen-13-one]	+++ (+++ is >60%)	< 1000 nM
Cc1cccc(C)c1-c1nc2nc(c1C)OC[C@@H](CC(C)(C)O)N(C1CC3(CC3)C1)C(=O)c1cccc(c1)S(=O)(=O)N2 [Compound 108, (11R)-6-(2,6-Dimethylphenyl)-11-(2-hydroxy-2-methyl-propyl)-7-methyl-2,2-dioxo-12-spiro[2.3]hexan-5-yl-9-oxa-2λ^6-thia-3,5,12,19-tetrazatricyclo[12.3.1.14,8]nonadeca-1(18),4(19),5,7,14,16-hexaen-13-one]	+++ (+++ is >60%)	1000 to 3000 nM
Cc1cccc(C)c1-c1nc2nc(c1C)OC[C@@H](CC(C)(C)C)N(C1CC3(CC(N(C)C)C3)C1)C(=O)c1cccc(c1)S(=O)(=O)N2 (stereo partly drawn) [Compound 95]	+++ (+++ is >60%)	< 1000 nM
Cc1cccc(C)c1-c1nc2nc(c1-c1ccncc1)OC[C@@H](C)NC(=O)c1cccc(c1)S(=O)(=O)N2 [Compound 145]	+ (+ is <30%)	
Cc1cccc(C)c1-c1nc2nc(c1C)OCCCN(C1CC3(CC(NC(=O)OC(C)(C)C)C3)C1)C(=O)c1cccc(c1)S(=O)(=O)N2 (stereo not drawn) [Compound 38]	+ (+ is <30%)	< 1000 nM
Cc1cccc(C)c1-c1nc2nc(c1F)OC[C@@H](CC(C)C)N(C1CC3(CCN(C(=O)OC(C)(C)C)CC3)C1)C(=O)c1cccc(c1)S(=O)(=O)N2 [Compound 187]	+++ (+++ is >60%)	< 1000 nM
Cc1cccc(C)c1-c1nc2nc(c1C)OC[C@@H](CC1(C(F)(F)F)CC1)NC(=O)c1cccc(c1)S(=O)(=O)N2 [Compound 103]	+++ (+++ is >60%)	< 1000 nM

Further lines, results first:

Ent. B Max Activity	EC50	Structure (SMILES)
+++ (+++ is >60%)	< 1000 nM	[H][C@]1(N2C(=O)c3cccc(c3)S(=O)(=O)Nc3nc(c(C)c(-c4c(C)cccc4C)n3)OC[C@H]2CC(C)(C)C)C[C@@]2(C[C@H](C(C)(C)O)C2)C1 (single isomer, unassigned) [Compound 57]
+++ (+++ is >60%)	< 1000 nM	Cc1cccc(C)c1-c1nc2nc(c1C)OC[C@@H](CC(C)(C)C)N(C1CC3(CC3)C1)C(=O)c1cccc(c1)S(=O)(=O)N2 [Compound 101]
+++ (+++ is >60%)	< 1000 nM	Cc1cccc(C)c1-c1nc2nc(c1C)OC[C@@H](CC1(C(F)(F)F)CC1)N(C1CC3(CC(NC(=O)OC(C)(C)C)C3)C1)C(=O)c1cccc(c1)S(=O)(=O)N2 (stereo in doubt) [Compound 98]
+++ (+++ is >60%)	< 1000 nM	COC1CC(N2C(=O)c3cccc(c3)S(=O)(=O)Nc3nc(c(C)c(-c4c(C)cccc4C)n3)OC[C@H]2CC2(C(F)(F)F)CC2)C1 (stereo partly drawn) [Compound 100]
+++ (+++ is >60%)	< 1000 nM	COC(=O)NC1CC2(C1)CC(N1C(=O)c3cccc(c3)S(=O)(=O)Nc3nc(c(C)c(-c4c(C)cccc4C)n3)OC[C@H]1CC1(C(F)(F)F)CC1)C2 (stereo in doubt) [Compound 88]
+++ (+++ is >60%)	< 1000 nM	Cc1cccc(C)c1-c1nc2nc(c1C)OC[C@@H](CC1(C(F)(F)F)CC1)N(C1CC3(CC(CO)C3)C1)C(=O)c1cccc(c1)S(=O)(=O)N2 (stereo partly drawn) [Compound 80]
+++ (+++ is >60%)	< 1000 nM	Cc1cccc(C)c1-c1nc2nc(c1/C=C/C(C)(C)C)OC[C@@H](CC(C)C)NC(=O)c1cccc(c1)S(=O)(=O)N2 [Compound 126, (11R)-7-[(1E)-3,3-dimethylbut-1-en-1-yl]-6-(2,6-dimethylphenyl)-11-(2-methylpropyl)-9-oxa-2λ^6-thia-3,5,12,19-tetraazatricyclo[12.3.1.14,8]nonadeca-1(17),4,6,8(19),14(18),15-hexaene-2,2,13-trione]
+++ (+++ is >60%)	< 1000 nM	Cc1cccc(C)c1-c1nc2nc(c1C)OC[C@@H](CC(C)(C)C)N(C1CC3(CC(NC(=O)OC(C)(C)C)C3)C1)C(=O)c1cccc(c1)S(=O)(=O)N2 (single isomer, unassigned) [Compound 60]
+++ (+++ is >60%)	< 1000 nM	Cc1cccc(C)c1-c1nc2nc(c1F)OC[C@@H](CC(C)C)N(C1CC3(CC3)C1)C(=O)c1cccc(c1)S(=O)(=O)N2 [Compound 175]
+++ (+++ is >60%)	< 1000 nM	Cc1cccc(C)c1-c1nc2nc(c1C)OC[C@@H](CC(C)(C)C)N(C1CC3(CC(NC(=O)OC(C)(C)C)C3)C1)C(=O)c1cccc(c1)S(=O)(=O)N2 (single isomer, unassigned) [Compound 59]
++ (++ is 30-60%)	< 1000 nM	Cc1cccc(C)c1-c1nc2nc(c1CN(C)C)OC[C@@H](CC(C)C)N(C1CC3(CC3)C1)C(=O)c1cccc(c1)S(=O)(=O)N2 [Compound 171, (11R)-7-[(Dimethylamino)methyl]-6-(2,6-dimethylphenyl)-11-isobutyl-2,2-dioxo-12-spiro[2.3]hexan-5-yl-9-oxa-2λ^6-thia-3,5,12,19-tetrazatricyclo[12.3.1.14,8]nonadeca-1(18),4(19),5,7,14,16-hexaen-13-one]
+++ (+++ is >60%)	< 1000 nM	COC(=O)NC1CC2(C1)CC(N1C(=O)c3cccc(c3)S(=O)(=O)Nc3nc(c(C)c(-c4c(C)cccc4C)n3)OC[C@H]1CC(C)C)C2 (stereo in doubt) [Compound 68]
+++ (+++ is >60%)	< 1000 nM	Cc1cccc(C)c1-c1nc2nc(c1C)OC[C@@H](CC1(C(F)(F)F)CC1)N(C1CC3(CC(N(C)C)C3)C1)C(=O)c1cccc(c1)S(=O)(=O)N2 (stereo in doubt) [Compound 91]
